Measured values published in PubChem BioAssay (NCI).
Several values for one entry are separate records, joined by “and”; a condition that tells them apart may be missing. Identical values can stand only once.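 Cells were grown in 96-well plates and exposed to each compound for 48 hours at five concentrations; endpoints were interpolated linearly between bracketing concentrations, or set to the highest concentration if not reached. At the GI50, growth is halved. At the TGI there is no net growth.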

Legend:
Test in all cases: NCI anticancer screen, dose series, 48 h
[1] = tested on: A498 renal
[2] = tested on: HOP-92 NSCLC
[3] = tested on: CAKI-1 renal
[4] = tested on: U251 CNS
[5] = tested on: SK-MEL-2 melanoma
[6] = tested on: HCC-2998 colon
[7] = tested on: SF-268 CNS
[8] = tested on: BT-549 breast
[9] = tested on: MCF7 breast
[10] = tested on: IGROV1 ovarian

Cc1cc2c(cc1C)[n+](=O)c(C(=O)c1ccccc1)c(C(F)F)n2[O-]
GI50 [1]: 24.5 µM
TGI [1]: 91.1 µM
GI50 [2]: 37.7 µM
TGI [2]: > 100 µM
GI50 [3]: 15.5 µM
TGI [3]: 71.7 µM
GI50 [4]: 12.7 µM
TGI [4]: > 100 µM
GI50 [5]: 21.2 µM
TGI [5]: 78.3 µM
GI50 [6]: 32.8 µM
TGI [6]: > 100 µM
GI50 [7]: 13 µM
TGI [7]: > 100 µM
GI50 [8]: 14.2 µM
TGI [8]: 65.3 µM
GI50 [9]: 12.1 µM
TGI [9]: 41.1 µM
GI50 [10]: 15.1 µM
TGI [10]: > 100 µM

Nc1nc2[nH]cc(CCc3ccc(C(=O)N[C@@H](CCC(=O)O)C(=O)O)cc3)c2c(=O)[nH]1
GI50 [1]: 0.124 µM
TGI [1]: > 100 µM
TGI [2]: > 100 µM
GI50 [3]: 0.0845 µM
TGI [3]: > 100 µM
GI50 [4]: 14.6 µM
TGI [4]: > 100 µM
TGI [5]: > 100 µM
GI50 [6]: 0.0576 µM
TGI [6]: > 100 µM
GI50 [7]: 0.219 µM
TGI [7]: > 100 µM
GI50 [8]: > 71.7 µM
TGI [8]: > 100 µM
GI50 [9]: 0.0246 µM
TGI [9]: > 100 µM
TGI [10]: > 100 µM

O=C1c2c(F)c(F)c(F)c(F)c2C(=O)N1c1ccc(F)cc1F
GI50 [1]: 25.8 µM
TGI [1]: 55.1 µM
GI50 [2]: 13.8 µM
TGI [2]: 31.9 µM
GI50 [3]: 8.44 µM
TGI [3]: 25.5 µM
GI50 [4]: 2.55 µM
TGI [4]: 7.95 µM
GI50 [5]: 34.4 µM
TGI [5]: > 100 µM
GI50 [6]: 11.2 µM
TGI [6]: 23.2 µM
GI50 [7]: 10.1 µM
TGI [7]: 27.8 µM
GI50 [8]: 11.9 µM
TGI [8]: 28 µM
GI50 [9]: 12.9 µM
TGI [9]: > 55.9 µM
GI50 [10]: 6.54 µM
TGI [10]: 19.3 µM

O=C1CSC(=S)N1/N=C/c1ccc(Cl)c([N+](=O)[O-])c1
TGI [1]: > 100 µM
TGI [2]: 67.7 µM
TGI [3]: > 100 µM
TGI [4]: 35.3 µM
TGI [5]: 92.7 µM
TGI [6]: 27.5 µM
TGI [7]: 40.2 µM
TGI [8]: 37.9 µM
TGI [9]: 32.7 µM
TGI [10]: > 100 µM

CN1CCN(c2ccc(Nc3ncc(Cl)c(NC[C@@H]4CCCO4)n3)cc2)CC1
GI50 [1]: 0.803 µM
TGI [1]: 3.36 µM
GI50 [2]: 1.68 µM
TGI [2]: 6.44 µM
GI50 [3]: 2.07 µM
TGI [3]: > 100 µM
GI50 [4]: 2 µM
TGI [4]: 49.1 µM
GI50 [5]: 2.59 µM
TGI [5]: 7.94 µM
GI50 [6]: 1.65 µM
TGI [6]: 37.5 µM
GI50 [7]: 1.55 µM
TGI [7]: 12.9 µM
GI50 [8]: 2.24 µM
TGI [8]: 6.94 µM
GI50 [9]: 0.683 µM
TGI [9]: 26.9 µM
GI50 [10]: 1.56 µM
TGI [10]: > 100 µM

COC(=O)/C=C/c1cc(OC(C)=O)c2c(c1)[C@@H](C(=O)OC)[C@H](c1ccc(OC(C)=O)c(OC(C)=O)c1)O2
GI50 [1]: 1.01 µM
TGI [1]: 7.97 µM
GI50 [2]: 0.769 µM
TGI [2]: 22.4 µM
GI50 [3]: 0.314 µM
TGI [3]: 44.7 µM
GI50 [4]: 0.114 µM
TGI [4]: 41 µM
GI50 [5]: 0.268 µM
TGI [5]: 70 µM
GI50 [6]: 0.514 µM
TGI [6]: 22 µM
GI50 [7]: 0.301 µM
TGI [7]: 57.5 µM
GI50 [8]: 0.219 µM
TGI [8]: 32.9 µM
GI50 [9]: 0.0339 µM
TGI [9]: > 70.7 µM
GI50 [10]: 0.176 µM
TGI [10]: 38.3 µM

COC(=O)[C@]12CC[C@@H](C)[C@H](C)[C@@H]1C1=CC[C@@H]3[C@@]4(C)C[C@@H](O)[C@H](O)[C@@](C)(CO)[C@@H]4[C@H](O)C[C@@]3(C)[C@]1(C)CC2
GI50 [1]: 16.6 µM
TGI [1]: 30.9 µM
GI50 [2]: 12.9 µM
TGI [2]: 27.9 µM
GI50 [3]: 13.1 µM
TGI [3]: 27.3 µM
GI50 [4]: 17.2 µM
TGI [4]: 40.9 µM
GI50 [5]: 22.6 µM
TGI [5]: 48.3 µM
GI50 [6]: 14.6 µM
TGI [6]: 31.2 µM
GI50 [7]: 12.6 µM
TGI [7]: 27.5 µM
GI50 [8]: 12.6 µM
TGI [8]: 26.4 µM
GI50 [9]: 12.1 µM
TGI [9]: 41 µM
GI50 [10]: 12.4 µM
TGI [10]: 29.4 µM

Cc1ccc(-c2nc(N3CCNCC3)c3oc(-c4ccc(C)cc4)nc3n2)cc1
GI50 [1]: 15.8 µM
TGI [1]: 32 µM
GI50 [2]: 11.5 µM
TGI [2]: 26.5 µM
GI50 [3]: 24.1 µM
TGI [3]: > 45.6 µM
GI50 [4]: 1.83 µM
TGI [4]: 3.32 µM
GI50 [5]: > 41.6 µM
TGI [5]: > 60.9 µM
GI50 [6]: 3.61 µM
GI50 [7]: 2.25 µM
TGI [7]: 5.61 µM
GI50 [8]: 5.39 µM
TGI [8]: 11.2 µM
GI50 [9]: 1.66 µM
TGI [9]: 3.53 µM
GI50 [10]: 1.92 µM
TGI [10]: 3.81 µM

COc1cc2c(cc1OC)-c1cc(OC)c(OC)cc1C(CN(C)C)C2 (stereo unspecified)
GI50 [1]: > 10 µM
TGI [1]: > 10 µM
GI50 [2]: 9.97 µM
TGI [2]: > 10 µM
GI50 [3]: > 10 µM
TGI [3]: > 10 µM
GI50 [4]: > 10 µM
TGI [4]: > 10 µM
GI50 [5]: > 10 µM
TGI [5]: > 10 µM
GI50 [6]: > 10 µM
TGI [6]: > 10 µM
GI50 [7]: > 10 µM
TGI [7]: > 10 µM
GI50 [8]: > 10 µM
TGI [8]: > 10 µM
GI50 [9]: > 10 µM
TGI [9]: > 10 µM
GI50 [10]: > 10 µM
TGI [10]: > 10 µM

CN1CCN(C(=O)COc2ccc(C34CC5CC(CC(C5)C3)C4)cc2)CC1
GI50 [1]: 15.2 µM
TGI [1]: 30.5 µM
GI50 [2]: 1.47 µM
TGI [2]: 7.23 µM
GI50 [3]: 15.6 µM
TGI [3]: 30.2 µM
GI50 [4]: 10.8 µM
TGI [4]: 25 µM
GI50 [5]: 15.5 µM
TGI [5]: 30.4 µM
GI50 [6]: 13.8 µM
TGI [6]: 27.4 µM
GI50 [7]: 16.4 µM
TGI [7]: 39.3 µM
GI50 [8]: 12.2 µM
TGI [8]: 26.5 µM
GI50 [9]: 12.7 µM
TGI [9]: 29.7 µM
GI50 [10]: 15 µM
TGI [10]: 39.2 µM

Br[Se]c1ccccn1
TGI [1]: 34 µM
TGI [2]: 33 µM
TGI [3]: 33 µM
TGI [4]: 29 µM
TGI [5]: 30.1 µM
TGI [6]: 35.5 µM
TGI [7]: 32.2 µM
TGI [8]: 32.9 µM
TGI [9]: 32.5 µM
TGI [10]: 31.5 µM

O=C(O)C(Cl)Cl
GI50 [1]: 2670 µM and > 10000 µM
TGI [1]: > 10000 µM
GI50 [2]: 3630 µM and > 10000 µM
TGI [2]: > 10000 µM
GI50 [3]: 5490 µM and > 10000 µM
TGI [3]: > 10000 µM
GI50 [4]: 7690 µM and > 10000 µM
TGI [4]: > 10000 µM
GI50 [5]: 8200 µM and > 10000 µM
TGI [5]: > 10000 µM
GI50 [6]: > 10000 µM
TGI [6]: > 10000 µM
GI50 [7]: 4970 µM and > 10000 µM
TGI [7]: > 10000 µM
GI50 [8]: 2780 µM and > 8920 µM
TGI [8]: > 10000 µM
GI50 [9]: 5560 µM and > 10000 µM
TGI [9]: > 10000 µM
GI50 [10]: > 10000 µM
TGI [10]: > 10000 µM

CCOC(=O)n1cc(C2=C(c3ccc(OC)c(OC)c3)COC2=O)c2ccccc21
GI50 [1]: 0.0226 µM
TGI [1]: 0.139 µM
GI50 [2]: 0.161 µM
TGI [2]: > 52.8 µM
GI50 [3]: 0.0465 µM
TGI [3]: 37.1 µM
GI50 [4]: 0.0536 µM
TGI [4]: > 100 µM
GI50 [5]: 0.402 µM
TGI [5]: > 100 µM
GI50 [6]: 0.0891 µM
TGI [6]: 16.5 µM
GI50 [7]: 0.262 µM
TGI [7]: > 100 µM
GI50 [8]: 0.105 µM
TGI [8]: 22.6 µM
GI50 [9]: 0.0336 µM
TGI [9]: > 100 µM
GI50 [10]: 0.0555 µM
TGI [10]: > 100 µM
